Data reported in patent US10485885B2, “Compositions and methods for delivery of agents” (ModernaTX, Inc., priority 2015, dated 2019).

System: circulating B cells and monocytes
Experiment: B cell, B1a cell and monocyte frequencies and activation in non-human primate PBMCs
Assay type: in vivo, cynomolgus monkeys
Protocol: The percentage of monocyte activation was also measured at pre-bleed, day 1, day 22, day 43, and day 44 of the study.
FIGS. 84A and 84B show the EPO expression after the first injection and after the fifth injection. In particular, the concentration of EPO (ng/mL) was measured at 2 hours, 6 hours, 12 hours, 24 hours, and 48 hours following the first injection and the fifth injection. FIGS. 85A-85E show the EPO expression for each of the co-medications on day 1 and day 29 of the study. In particular, the concentration of EPO (ng/mL) was measured on day 1 and day 29 at 2 hours, 6 hours, 12 hours, 24 hours, and 48 hours for each co-medication group. Immune cell populations were also measured. Specifically, the percentage of B cells (FIG. 86A), B1a cells (FIG. 86B), and monocytes (FIG. 86C) in PBMCs was measured for each co-medication group at day-7, 24 hours post first injection, and 24 hours post fifth injection. B cell activation is reflected in FIG. 87. The percentage of activated B cells in circulating B cells was measured for each co-medication group at day-7, 24 hours post first injection, and 24 hours post fifth injection.
Monocyte activation is reflected in FIG. 88. The percentage of activated monocytes/macrophages in circulating PBMCs was measured for each co-medication group at day-7, 24 hours post first injection, and 24 hours post fifth injection. […] An increase in the percentage of activated monocytes/macrophages post injection was only observed in the fingolimod co-medication group.

[1] = co-medication with hEPO mRNA MC3-LNP, 24 hours post first injection

| SMILES | Frequencies of monocytes in PBMCs (co-medication) | Percentage of activated monocytes/macrophages post injection (co-medication) | Percentage of activated B cells in circulating B cells [1] | B cell frequencies in PBMCs (cynomolgus monkey, in vivo) | Percentage of activated B cells in circulating B cells (cynomolgus monkey, in vivo) |
| --- | --- | --- | --- | --- | --- |
| CCCCCCCCc1ccc(CCC(N)(CO)CO)cc1 [fingolimod] | significant decrease | increase | normal B cell activation similar to that of the control group |  |  |
| COc1cc(Nc2ncc(F)c(Nc3ccc4c(n3)N(COP(=O)(O)O)C(=O)C(C)(C)O4)n2)cc(OC)c1OC [fostamatinib] |  |  | normal B cell activation similar to that of the control group |  |  |
| CC[C@H](Nc1ncnc2[nH]cnc12)c1nc2cccc(F)c2c(=O)n1-c1ccccc1 [idelalisib] |  |  |  | slightly reduced | B cell activation was not observed |
